Key:
AChE = AChE (Homo sapiens, UniProt P22303); experiment: biochemical; details: for Ki: Lineweaver-Burk curves; for Ki / IC50: means of triplicate assays ± SEM; for AChE inhibition type: from Lineweaver-Burk curves; for IC50: 30°C
Experimental: Reaction mixtures contained the 50 μL of 5,5′-dithio-bis(2-nitro-benzoic)acid compound (DTNB) and 100 μL of Tris–HCl solution (1 M, pH 8.0), and 20 μL AChE solution in total volume of 1 mL. The mixture was then incubated and mixed for 15 min at 30°C. Next, The reaction was started by adding 50 μL of acetylthiocholine iodide, and carried out for 5 min at 30°C. After adding substrate, the change in absorbance at 0 and 5 minutes was recorded at 412 nm.
AChE activities were determined at 30°C by using five concentrations of acetylthiocholine iodide and three concentrations of compounds.

S. aureus = experiment: Antimicrobial test, broth microdilution MIC; assay type: cell-based, Staphylococcus aureus (ATCC 29213); details: Staphylococcus aureus, 24 h, read-out: Minimum inhibitory concentration, S. aureus
Experimental: (§1) This study used standard strains of bacteria known to be resistant to antibiotics. These isolates were identified as three gram-positive bacteria: Bacillus subtilis, Staphylococcus aureus (ATCC 29213) and Enterococcus faecalis (ATCC 29212); and two Gram-negative bacteria: Escherichia coli (ATCC 25922) and Pseudomonas aeruginosa (ATCC 27853). The strains were grown in blood medium one night before the broth microdilution method was used. They were then passaged and stored in tryptic soy broth (TSB) at -20°C for repeat experiments. Bacterial strains were passaged in blood medium and incubated in an oven at 35 ± 2°C for 18–24 hours. At least 3–5 similar colonies were selected from the culture plate. These were picked up with a loop and transferred to 4–5 mL of liquid medium (e.g. tryptic soy broth). The broth was incubated at 35°C until the turbidity reached McFarland 0.5 (approximately 2–6 hours). The density of the culture in the broth was determined by preparing a bacterial solution with a McFarland density of 0.5. The microdilution method was used to determine MIC values. Standards were dissolved in DMSO. Positive controls were prepared with penicillin, fluconazole and gentamicin.
(§2) It was prepared at concentrations of 1, 2, 4, 8, 16, 32, 64, 128, 256 and 512 µg/mL. 1% DMSO was used as a solvent control. Compounds were spiked at initial test control concentrations of 250 µg/mL in MHB. MHB was added to all wells except the first well. 100 µl of compounds were added to the first well. Serial dilutions were then made and diluted to the minimum concentration (1 µg/ml). Then 0.5 McFarland was prepared from bacteria incubated in MHB for 1 night. Then 50 µl of bacterial suspension was added to each well. The plates were incubated at 37°C for 24 hours. The microplates were then read in the spectrophotometer at a wavelength of 620 nm.
(§3) 100 µl of MHB was added to each well of a 12-well U-bottom microplate. 100 μL of the previously prepared NHC precursor drug was taken and transferred to the first well, and 100 μL was taken again by pipetting and transferred to the second well. In this way, dilutions were made sequentially up to the 11th well. No NHC precursor was added to the 12th well, which was used as a positive control. Then 100 μL of the prepared 5 x 10^5 CFU/mL bacterial suspension was taken and added to all wells without adding to the 11th well. The 11th well was used as a negative control ([Demirhan et al., 2024]). The same study was performed for all NHC precursors. The microplates were then incubated at 35°C for 24 hours. The lowest concentration at which no growth occurred for all strains was determined as the MIC.

E. faecalis = experiment: Antimicrobial test, broth microdilution MIC; assay type: cell-based, Enterococcus faecalis (ATCC 29212); details: Enterococcus faecalis, 24 hours, read-out: Minimum inhibitory concentration, E. faecalis
Experimental: as §1, §2, §3

E. coli = experiment: Antimicrobial test, broth microdilution MIC; assay type: cell-based, Escherichia coli (ATCC 25922); details: Escherichia coli, 24 hours, read-out: Minimum inhibitory concentration, E. coli
Experimental: as §1, §2, §3

P. aeruginosa = experiment: Antimicrobial test, broth microdilution MIC; assay type: cell-based, Pseudomonas aeruginosa (ATCC 27853); details: Pseudomonas aeruginosa, 24 hours, read-out: Minimum inhibitory concentration, P. aeruginosa
Experimental: as §1, §2, §3

Chain of AChE (P22303 32-614): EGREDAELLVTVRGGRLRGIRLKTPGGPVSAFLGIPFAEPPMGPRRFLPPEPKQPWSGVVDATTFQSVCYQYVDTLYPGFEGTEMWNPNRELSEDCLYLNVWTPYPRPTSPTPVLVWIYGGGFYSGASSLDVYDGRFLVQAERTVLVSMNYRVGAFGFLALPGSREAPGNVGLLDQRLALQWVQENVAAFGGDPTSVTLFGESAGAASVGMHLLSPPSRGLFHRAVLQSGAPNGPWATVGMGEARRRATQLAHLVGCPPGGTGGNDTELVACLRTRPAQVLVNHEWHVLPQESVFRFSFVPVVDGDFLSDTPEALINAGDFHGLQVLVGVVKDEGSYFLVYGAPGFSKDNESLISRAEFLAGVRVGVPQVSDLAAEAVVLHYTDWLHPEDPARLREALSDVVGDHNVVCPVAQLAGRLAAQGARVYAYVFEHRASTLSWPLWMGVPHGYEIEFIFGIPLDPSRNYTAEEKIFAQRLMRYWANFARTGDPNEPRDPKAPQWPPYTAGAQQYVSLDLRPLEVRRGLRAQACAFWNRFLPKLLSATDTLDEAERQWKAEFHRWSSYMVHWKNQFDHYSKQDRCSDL

SMILES | Ki (AChE) [µM] | AChE inhibition type (AChE) | IC50 (AChE) [µM] | MIC (S. aureus) [mg/L] | MIC (E. faecalis) [mg/L] | MIC (E. coli) [mg/L] | MIC (P. aeruginosa) [mg/L]
CC(=O)c1ccc(-n2cc[n+](CCN3CCOCC3)c2)cc1.Cl.[Cl-] [Compound 1a, 1-(4-acetylphenyl)-3-(2-morpholino)ethylimidazolium chloride hydrochloride] | 11.2 ± 1.05 | Uncompetitive | 14.8 ± 0.82 | 25 | 50 | 200 | 200
CC(=O)c1ccc(-n2cc[n+](CCN3CCCCC3)c2)cc1.Cl.[Cl-] [Compound 1b, 1-(4-acetylphenyl)-3-(2-piperidino)ethylimidazolium chloride hydrochloride] | 1.69 ± 0.08 | Uncompetitive | 2.21 ± 0.16 | 12.5 | 50 | 200 | 200
CC(=O)c1ccc(-n2cc[n+](CCN3CCCC3)c2)cc1.Cl.[Cl-] [Compound 1c, 1-(4-acetylphenyl)-3-(2-pyrrolidino)ethylimidazolium chloride hydrochloride] | 8.05 ± 0.72 | Uncompetitive | 10.5 ± 1.08 | 25 | 50 | 50 | 25
Br.CC(=O)c1ccc(-n2cc[n+](Cc3ccccn3)c2)cc1.[Br-] [Compound 1d, 1-(4-acetylphenyl)-3-(pyridin-2-yl)methylimidazolium bromide hydrobromide] | 0.8 ± 0.06 | Uncompetitive | 1.05 ± 0.07 | 50 | 10 | 50 | 200
Cl.O=Cc1ccc(-n2cc[n+](CCN3CCOCC3)c2)cc1.[Cl-] [Compound 2a, 1-(4-formylphenyl)-3-(2-morpholino)ethylimidazolium chloride hydrochloride] | 0.66 ± 0.03 | Uncompetitive | 0.87 ± 0.06 | 250 | 250 | 200 | 200
Cl.O=Cc1ccc(-n2cc[n+](CCN3CCCCC3)c2)cc1.[Cl-] [Compound 2b, 1-(4-formylphenyl)-3-(2-piperidino)ethylimidazolium chloride hydrochloride] | 0.78 ± 0.05 | Uncompetitive | 1.02 ± 0.08 | 250 | 50 | 100 | 200
Cl.O=Cc1ccc(-n2cc[n+](CCN3CCCC3)c2)cc1.[Cl-] [Compound 2c, 1-(4-formylphenyl)-3-(2-pyrrolidino)ethylimidazolium chloride hydrochloride] | 3.16 ± 0.24 | Uncompetitive | 4.13 ± 0.25 | 100 | 50 | 200 | 200
Br.O=Cc1ccc(-n2cc[n+](Cc3ccccn3)c2)cc1.[Br-] [Compound 2d, 1-(4-formylphenyl)-3-(pyridin-2-yl)methylimidazolium bromide hydrobromide] | 0.63 ± 0.04 | Uncompetitive | 0.82 ± 0.06 | 250 | 100 | 200 | 200

From PMC12313567 (Frontiers in Cellular and Infection Microbiology, 2025)
